Measured values: the supplement of paper PMC10307832

How the values were obtained:
Assay in all cases: relative viability (nuclei count vs DMSO), 5 days (fraction); higher = more cells survive
[1] = compound: CCN1C(=O)C2=CC(=C(N=C2N(C1=O)C3CC3)N)C(=O)N + CC(C)C[C@H](NC(=O)[C@H](Cc1ccccc1)NC(=O)c1cnccn1)B(O)O [Bortezomib] (partner 0.002 µM)
In short: (§1)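 Relative viability was taken as the ratio of nuclei in treated wells to nuclei in vehicle wells. Lung cancer cell lines in 1536-well plates received compounds by pin tool one day after seeding, either one drug alone or a fixed anchor-drug dose plus five library-drug doses (not always all listed) in √10 steps. Nuclei were counted on 4× images after 5 days of treatment, and values are medians of duplicate plates.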

[2] = compound: CCN1C(=O)C2=CC(=C(N=C2N(C1=O)C3CC3)N)C(=O)N + Cc1cc(Nc2cc(N3CCN(C)CC3)nc(Sc3ccc(NC(=O)C4CC4)cc3)n2)n[nH]1 [Tozasertib] (partner 0.1 µM)
In short: as §1

[3] = compound: CCN1C(=O)C2=CC(=C(N=C2N(C1=O)C3CC3)N)C(=O)N + N=C(N)NC(=N)NCCc1ccccc1 [Phenformin] (partner 250 µM)
In short: as §1

[4] = compound: CCN1C(=O)C2=CC(=C(N=C2N(C1=O)C3CC3)N)C(=O)N + Nc1nc2[nH]cc(CCc3ccc(C(=O)N[C@@H](CCC(=O)O)C(=O)O)cc3)c2c(=O)[nH]1 [Pemetrexed] (partner 0.2 µM)
In short: as §1

[5] = compound: CCN1C(=O)C2=CC(=C(N=C2N(C1=O)C3CC3)N)C(=O)N + C[C@]1(O)C[C@@H](c2nc(-c3ccc4ccc(-c5ccccc5)nc4c3)c3c(N)nccn32)C1 [Linsitinib] (partner 1 µM)
In short: as §1

Cell Line	relative viability ([1]; first compound 0.253 µM)	relative viability ([1]; first compound 0.8 µM)	relative viability ([1]; first compound 2.53 µM)	relative viability ([1]; first compound 8 µM)	relative viability ([2]; first compound 0.253 µM)	relative viability ([2]; first compound 0.8 µM)	relative viability ([2]; first compound 2.53 µM)	relative viability ([2]; first compound 8 µM)	relative viability ([3]; first compound 0.253 µM)	relative viability ([3]; first compound 0.8 µM)	relative viability ([3]; first compound 2.53 µM)	relative viability ([3]; first compound 8 µM)	relative viability ([4]; first compound 0.253 µM)	relative viability ([4]; first compound 0.8 µM)	relative viability ([4]; first compound 2.53 µM)	relative viability ([4]; first compound 8 µM)	relative viability ([5]; first compound 0.253 µM)	relative viability ([5]; first compound 0.8 µM)	relative viability ([5]; first compound 2.53 µM)	relative viability ([5]; first compound 8 µM)
ChaGo-K-1	1.12	0.87	1.1	1.1	0.218	0.215	0.221	0.2	0.485	0.446	0.561	0.472	0.272	0.264	0.263	0.246				
NCI-H2342					0.512	0.533	0.544	0.54	0.556	0.547	0.666	0.532	0.781	0.746	0.802	0.817				
SK-MES-1					0.902	0.931	0.85	0.918	0.628	0.687	0.662	0.642	0.981	0.911	0.858	0.882	1.07	0.984	1.02	1.13
LCLC-97TM1	0.873	0.326	1.27	0.625	0.218	0.166	0.204	0.25	0.383	0.452	0.375	0.407	0.227	0.177	0.173	0.172	0.196			0.218
NCI-H2170					0.752	0.788	0.692	0.632	0.42	0.444	0.418	0.445	0.271	0.289	0.28	0.251				
NCI-H1993	1.05	0.925	0.983	1.11	0.6	0.569	0.537	0.512	0.526	0.457	0.524	0.438	0.607	0.525	0.607	0.541	0.732	0.784	0.7	0.777
NCI-H460	1.16	1.03	0.983	1.23	0.436	0.455	0.33	0.112	0.519	0.571	0.476	0.499	0.0628	0.0522	0.0677	0.0646	0.927	0.806	0.71	0.71
NCI-H1975	0.378	0.423	0.413	0.439	0.738	0.737	0.608	0.331	0.416	0.417	0.406	0.375	0.294	0.292	0.319	0.288	0.981	0.955	0.882	1.04
SW 1573	0.994	1.14	0.935	1.04	0.172	0.174	0.142	0.219	0.398	0.472	0.276	0.364	0.855	0.884	0.844	0.791	0.817	0.729	0.797	0.781
NCI-H322M	1.25	0.701	1.25	1.14	0.526	0.475	0.493	0.511	0.822	0.736	0.75	0.868	0.632	0.541	0.634	0.6	0.89	0.9	0.865	0.914
NCI-H1651	0.996	0.897	0.964	0.858	0.622	0.586	0.631	0.508	0.297	0.326	0.328	0.313	0.582	0.608	0.588	0.597	0.953	1.1	0.902	1.04
ABC-1	0.298	0.325	0.312	0.266	0.17	0.167	0.178	0.149	0.24	0.22	0.274	0.25					0.825	0.989	0.72	0.876
NCI-H1792	0.983	0.861	1.03	1.06					0.224	0.237	0.367	0.352	0.733	0.77	0.911	0.909	0.551	0.624	0.59	0.559
NCI-H1944					0.26	0.266	0.247	0.279	0.255	0.218	0.208	0.204	0.64	0.589	0.615	0.624	1.19	1.16	1.02	1.18
NCI-H1703	0.384	0.383	0.34	0.374													0.852	1.12	0.853	0.6
NCI-H1650	0.192	0.185	0.182	0.187	0.394	0.404	0.38	0.342	0.47	0.4	0.367	0.379	0.38	0.324	0.333	0.382				
NCI-H1395					0.697	0.693	0.722	0.65	0.451	0.428	0.464	0.439	0.922	0.811	0.979	0.816	1.13	0.888	0.974	1.13
NCI-H1793						0.375	0.265	0.298		0.38	0.352	0.408	0.915	0.925	0.805	0.861	0.656	0.944		0.956
NCI-H522					0.593	0.478	0.496	0.489	0.552	0.565	0.705	0.546	1.1	0.976	0.792	0.926				
SW 900					0.553	0.507	0.457	0.446	0.498	0.625	0.493	0.563	0.462	0.517	0.52	0.473				
